Experiments:
Format in all cases: cell-based
human TLR9 = human TLR9 (Homo sapiens (Human), UniProt Q9NR96); experiment: TLR9 inhibition reporter assay (HEK-Blue, SEAP); details: HEK-Blue cells overexpressing human TLR9, ODN2006 5 nM stimulation
Outline: (§1)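 HEK-Blue cells expressing human TLR7, TLR8 or TLR9 with NF-κB/AP-1-driven SEAP reporter; compounds 0.05 nM–50 μM, 30 min pre-treatment at room temperature. Stimulated with gardiquimod 7.5 μM (TLR7), R848 15.9 μM (TLR8) or ODN2006 5 nM (TLR9), 22 h at 37 °C; % inhibition of SEAP signal relative to agonist+DMSO and known-inhibitor wells.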

human TLR7 = human TLR7 (Homo sapiens (Human), UniProt Q9NYK1); experiment: TLR7 inhibition reporter assay (HEK-Blue, SEAP); details: HEK-Blue cells overexpressing human TLR7, gardiquimod 7.5 μM stimulation
human TLR7, sequence (Q9NYK1 27-1049): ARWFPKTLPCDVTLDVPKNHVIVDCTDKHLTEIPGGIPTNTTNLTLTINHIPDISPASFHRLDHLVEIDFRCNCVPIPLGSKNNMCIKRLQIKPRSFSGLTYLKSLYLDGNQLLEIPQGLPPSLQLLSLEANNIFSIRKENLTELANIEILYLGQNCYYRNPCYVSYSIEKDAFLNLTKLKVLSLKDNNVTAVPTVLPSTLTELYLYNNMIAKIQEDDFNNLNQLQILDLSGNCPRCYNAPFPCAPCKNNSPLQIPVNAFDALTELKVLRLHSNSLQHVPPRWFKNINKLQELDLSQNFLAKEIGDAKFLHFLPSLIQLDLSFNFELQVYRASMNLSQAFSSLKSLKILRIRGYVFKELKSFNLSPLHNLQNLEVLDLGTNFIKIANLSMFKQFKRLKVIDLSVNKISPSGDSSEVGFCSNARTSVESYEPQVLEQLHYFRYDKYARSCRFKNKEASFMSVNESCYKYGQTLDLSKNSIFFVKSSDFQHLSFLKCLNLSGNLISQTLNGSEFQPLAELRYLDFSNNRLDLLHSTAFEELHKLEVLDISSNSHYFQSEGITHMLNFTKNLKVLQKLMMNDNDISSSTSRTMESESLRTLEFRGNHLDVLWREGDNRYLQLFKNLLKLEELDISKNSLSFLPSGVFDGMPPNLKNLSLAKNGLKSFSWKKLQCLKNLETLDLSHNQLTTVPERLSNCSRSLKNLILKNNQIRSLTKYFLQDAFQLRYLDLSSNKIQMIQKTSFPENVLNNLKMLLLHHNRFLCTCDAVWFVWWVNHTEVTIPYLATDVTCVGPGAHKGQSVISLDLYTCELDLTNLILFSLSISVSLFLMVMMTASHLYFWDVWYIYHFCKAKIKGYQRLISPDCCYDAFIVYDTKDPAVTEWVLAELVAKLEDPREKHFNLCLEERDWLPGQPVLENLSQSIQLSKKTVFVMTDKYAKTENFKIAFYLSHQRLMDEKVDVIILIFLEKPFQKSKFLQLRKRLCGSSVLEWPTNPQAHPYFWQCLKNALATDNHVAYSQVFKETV
Outline: as §1

human TLR8 = human TLR8 (Homo sapiens (Human), UniProt Q9NR97); experiment: TLR8 inhibition reporter assay (HEK-Blue, SEAP); details: HEK-Blue cells overexpressing human TLR8, R848 15.9 μM stimulation
human TLR8, sequence (Q9NR97 27-1041): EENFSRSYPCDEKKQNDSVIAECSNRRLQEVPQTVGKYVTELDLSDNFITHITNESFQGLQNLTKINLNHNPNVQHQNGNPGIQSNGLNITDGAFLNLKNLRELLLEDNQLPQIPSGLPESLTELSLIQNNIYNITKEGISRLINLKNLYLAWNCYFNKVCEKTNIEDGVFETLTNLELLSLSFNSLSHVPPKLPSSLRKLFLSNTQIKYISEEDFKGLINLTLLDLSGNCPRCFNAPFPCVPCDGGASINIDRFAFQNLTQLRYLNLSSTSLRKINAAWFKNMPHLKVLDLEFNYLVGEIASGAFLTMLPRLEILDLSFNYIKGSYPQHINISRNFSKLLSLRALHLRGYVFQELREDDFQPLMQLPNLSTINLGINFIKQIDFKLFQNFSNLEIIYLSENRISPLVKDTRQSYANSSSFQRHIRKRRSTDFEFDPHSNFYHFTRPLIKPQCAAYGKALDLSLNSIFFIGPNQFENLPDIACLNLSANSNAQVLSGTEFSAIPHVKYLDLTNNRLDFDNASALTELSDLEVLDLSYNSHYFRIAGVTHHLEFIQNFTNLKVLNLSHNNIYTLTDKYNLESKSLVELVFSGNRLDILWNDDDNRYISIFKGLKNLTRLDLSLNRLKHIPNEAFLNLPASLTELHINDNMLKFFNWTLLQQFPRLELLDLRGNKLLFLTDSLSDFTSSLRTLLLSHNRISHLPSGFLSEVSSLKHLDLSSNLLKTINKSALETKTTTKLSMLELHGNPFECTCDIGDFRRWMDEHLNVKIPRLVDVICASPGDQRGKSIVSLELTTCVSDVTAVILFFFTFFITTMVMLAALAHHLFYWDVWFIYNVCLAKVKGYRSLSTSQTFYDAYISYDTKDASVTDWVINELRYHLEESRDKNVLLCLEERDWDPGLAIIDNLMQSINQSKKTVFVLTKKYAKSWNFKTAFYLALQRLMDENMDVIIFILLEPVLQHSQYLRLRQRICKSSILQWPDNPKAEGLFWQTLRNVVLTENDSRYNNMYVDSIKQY
Outline: as §1

human TLR9, sequence (Q9NR96 26-1032): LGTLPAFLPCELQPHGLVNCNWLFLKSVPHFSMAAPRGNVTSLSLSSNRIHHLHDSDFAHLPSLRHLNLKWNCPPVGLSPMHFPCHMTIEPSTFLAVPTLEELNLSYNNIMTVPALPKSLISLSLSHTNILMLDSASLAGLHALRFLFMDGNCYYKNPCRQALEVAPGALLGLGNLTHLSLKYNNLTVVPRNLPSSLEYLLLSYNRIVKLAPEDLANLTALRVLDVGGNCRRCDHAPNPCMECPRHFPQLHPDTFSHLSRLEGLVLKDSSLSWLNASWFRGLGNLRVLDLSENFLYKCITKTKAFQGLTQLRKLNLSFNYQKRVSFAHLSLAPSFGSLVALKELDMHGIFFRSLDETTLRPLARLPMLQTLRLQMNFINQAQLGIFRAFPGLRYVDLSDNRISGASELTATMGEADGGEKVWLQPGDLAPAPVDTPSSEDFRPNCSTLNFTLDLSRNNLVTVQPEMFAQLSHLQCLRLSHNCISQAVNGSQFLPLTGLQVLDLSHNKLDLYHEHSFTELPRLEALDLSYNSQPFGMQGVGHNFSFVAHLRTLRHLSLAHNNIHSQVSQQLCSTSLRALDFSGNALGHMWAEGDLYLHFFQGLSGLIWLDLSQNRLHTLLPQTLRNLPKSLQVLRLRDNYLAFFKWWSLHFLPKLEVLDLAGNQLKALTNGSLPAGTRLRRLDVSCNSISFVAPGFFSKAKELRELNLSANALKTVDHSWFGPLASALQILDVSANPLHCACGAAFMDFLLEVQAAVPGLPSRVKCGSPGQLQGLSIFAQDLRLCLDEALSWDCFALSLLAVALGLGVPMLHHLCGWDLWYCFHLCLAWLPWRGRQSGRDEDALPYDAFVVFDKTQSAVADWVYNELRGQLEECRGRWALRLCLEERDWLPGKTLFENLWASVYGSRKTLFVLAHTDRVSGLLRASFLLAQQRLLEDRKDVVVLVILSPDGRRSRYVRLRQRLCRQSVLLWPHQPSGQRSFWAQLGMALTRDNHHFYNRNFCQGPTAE

IC50 (human TLR9) [µM]	IC50 (human TLR7) [nM]	IC50 (human TLR8) [nM]	Structure (SMILES)
7	27	209	CNC(=O)CN1CCC(c2nnc(-c3ccc4[nH]c(-c5ccc(OC)c(OC)c5)c(C(C)C)c4c3)[nH]2)CC1 [Example 130, 2-(4-(5-(2-(3,4-dimethoxyphenyl)-3-isopropyl-1H-indol-5-yl)-4H-1,2,4-triazol-3-yl)piperidin-1-yl)-N-methylacetamide]
> 50	2290	71	COc1ccc(-c2[nH]c3ccc(-c4ccc(N5CCOCC5)nc4)cc3c2C(C)C)cc1OC [Example 416, 4-(5-(2-(3,4-dimethoxyphenyl)-3-isopropyl-1H-indol-5-yl)pyridin-2-yl)morpholine]
2.36	338	126	COc1ccc(-c2[nH]c3ccc(-c4ccc(OC5CCN(C(C)C)CC5)cc4)cc3c2C(C)C)cc1OC [Example 389, 2-(3,4-dimethoxyphenyl)-3-isopropyl-5-(4-((1-isopropylpiperidin-4-yl)oxy)phenyl)-1H-indole]
1.8	287	102	COc1ccc(-c2[nH]c3ccc(-c4cccc(C(=O)N5CCN(c6ccncc6)CC5)c4)cc3c2CC(F)(F)F)cc1OC [Example 36, (3-(2-(3,4-dimethoxyphenyl)-3-(2,2,2-trifluoroethyl)-1H-indol-5-yl)phenyl)(4-(pyridin-4-yl)piperazin-1-yl)methanone]
> 50	258	17	Cc1cc(-c2[nH]c3ccc(-c4nnc(Cc5c[nH]cn5)o4)cc3c2C(C)C)ccn1 [Example 144, 2-((1H-imidazol-4-yl)methyl)-5-(3-isopropyl-2-(2-methylpyridin-4-yl)-1H-indol-5-yl)-1,3,4-oxadiazole]
11.5	169	11	CN[C@@H](C)c1nnc(-c2ccc3[nH]c(-c4ccc(OC)c(OC)c4)c(C(C)C)c3c2)o1 [Example 49, (S)-1-(5-(2-(3,4-dimethoxyphenyl)-3-isopropyl-1H-indol-5-yl)-1,3,4-oxadiazol-2-yl)-N-methylethan-1-amine]
2.78	121	42	COc1ccc(-c2[nH]c3ccc(-c4cccc(C(=O)N[C@H]5CC[C@H](N)CC5)c4)cc3c2C(C)C)cc1OC [Example 6]
2.3	2110	64	COc1ccc(-c2[nH]c3ccc(-c4cccc(N5CCN(C)CC5)c4)cc3c2C(C)C)cc1OC [Example 369, 2-(3,4-dimethoxyphenyl)-3-isopropyl-5-(3-(4-methylpiperazin-1-yl)phenyl)-1H-indole]
44	486	111	CC(C)c1c(-c2ccnc3[nH]ncc23)[nH]c2ccc(-c3ccc4c(cnn4C)c3)cc12 [Example 395, 4-(3-isopropyl-5-(1-methyl-1H-indazol-5-yl)-1H-indol-2-yl)-1H-pyrazolo[3,4-b]pyridine]
0.828	169	67	Cc1cc(-c2[nH]c3ccc(-c4ccc(NC(=O)[C@@H]5CCNC5)nc4)cc3c2C(C)C)ccn1 [Example 209, (R)—N-(5-(3-isopropyl-2-(2-methylpyridin-4-yl)-1H-indol-5-yl)pyridin-2-yl)pyrrolidine-3-carboxamide]
3.26	2280	1300	FC(F)Cc1c(-c2ccnc3[nH]ncc23)[nH]c2ccc(-c3nnc([C@@H]4CCCNC4)o3)cc12 [Example 243, (R)-2-(3-(2,2-difluoroethyl)-2-(1H-pyrazolo[3,4-b]pyridin-4-yl)-1H-indol-5-yl)-5-(piperidin-3-yl)-1,3,4-oxadiazole]
7.27	251	36	Cc1cc(-c2[nH]c3ccc(-c4nnc(CCCCN)o4)cc3c2C(C)C)ccn1 [Example 264, 4-(5-(3-isopropyl-2-(2-methylpyridin-4-yl)-1H-indol-5-yl)-1,3,4-oxadiazol-2-yl)butan-1-amine]
0.451	9.7	2.7	Cc1cc(-c2[nH]c3ccc(-c4ccc(NC(=O)CN(C)C)nc4)cc3c2C(C)C)cc(C)n1 [Example 238, 2-(dimethylamino)-N-(5-(2-(2,6-dimethylpyridin-4-yl)-3-isopropyl-1H-indol-5-yl)pyridin-2-yl)acetamide]
33.4	172	163	Cc1cc(-c2[nH]c3ccc(-c4cc(NC(=O)OC(C)(C)C)c5nccn5c4)cc3c2C(C)C)cc(C)n1 [Example 303, tert-butyl (6-(2-(2,6-dimethylpyridin-4-yl)-3-isopropyl-1H-indol-5-yl)imidazo[1,2-a]pyridin-8-yl)carbamate]
> 50	192	27	Cc1cc(-c2[nH]c3ccc(-c4nnc(Cn5ccnc5)o4)cc3c2C(C)C)ccn1 [Example 141, 2-((1H-imidazol-1-yl)methyl)-5-(3-isopropyl-2-(2-methylpyridin-4-yl)-1H-indol-5-yl)-1,3,4-oxadiazole]
4.11	21	13	Cc1cc(-c2[nH]c3ccc(-c4cc5c(s4)CN(C(=O)CN(C)C)CC5)cc3c2C(C)C)ccn1 [Example 305, 2-(dimethylamino)-1-(2-(3-isopropyl-2-(2-methylpyridin-4-yl)-1H-indol-5-yl)-4,7-dihydrothieno[2,3-c]pyridin-6(5H)-yl)ethan-1-one]
0.128	14	8.8	CNCCCNC(=O)c1coc(-c2ccc3[nH]c(-c4cc(C)nc(C)c4)c(C(C)C)c3c2)n1 [Example 279, 2-(2-(2,6-dimethylpyridin-4-yl)-3-isopropyl-1H-indol-5-yl)-N-(3-(methylamino)propyl)oxazole-4-carboxamide]
0.59	328	9.2	CC(C)c1c(-c2ccnc3[nH]ncc23)[nH]c2ccc(-c3nnc(C(=O)N4CC5CNCC5C4)o3)cc12 (stereo not drawn) [Example 85, (hexahydropyrrolo[3,4-c]pyrrol-2(1H)-yl)(5-(3-isopropyl-2-(1H-pyrazolo[3,4-b]pyridin-4-yl)-1H-indol-5-yl)-1,3,4-oxadiazol-2-yl)methanone]
42.3	2180	238	CCc1c(-c2ccc(OC)c(OC)c2)[nH]c2ccc(-c3ccncc3)cc12 [Example 471, 2-(3,4-dimethoxyphenyl)-3-ethyl-5-(pyridin-4-yl)-1H-indole]
32.9	1000	73	COc1ccc(-c2[nH]c3ccc(-c4cccc(C(=O)NCCNC(C)=O)c4)cc3c2CC(F)(F)F)cc1OC [Example 26, N-(2-acetamidoethyl)-3-(2-(3,4-dimethoxyphenyl)-3-(2,2,2-trifluoroethyl)-1H-indol-5-yl)benzamide]
0.727	9.6	9.7	Cc1cc(-c2[nH]c3ccc(-c4ccnc(N)c4)cc3c2C(C)C)ccn1 [Example 200, 4-(3-isopropyl-2-(2-methylpyridin-4-yl)-1H-indol-5-yl)pyridin-2-amine]
25.8	895	307	COc1ccc(-c2[nH]c3ccc(-c4cccc(C(=O)N5CCC(O)CC5)c4)cc3c2CC(F)(F)F)cc1OC [Example 31, (3-(2-(3,4-dimethoxyphenyl)-3-(2,2,2-trifluoroethyl)-1H-indol-5-yl)phenyl)(4-hydroxypiperidin-1-yl)methanone]
3.93	120	23	CC(C)c1c(-c2ccnc(N)c2)[nH]c2ccc(-c3nc(C(=O)NC4CCN(C(C)C)CC4)co3)cc12 [Example 160, 2-(2-(2-aminopyridin-4-yl)-3-isopropyl-1H-indol-5-yl)-N-(1-isopropylpiperidin-4-yl)oxazole-4-carboxamide]
1.71	138	45	COc1ccc(-c2[nH]c3ccc(-c4nnc(C5CCN(Cc6ccccc6)CC5)[nH]4)cc3c2C(C)C)cc1OC [Example 106, 5-(5-(1-benzylpiperidin-4-yl)-4H-1,2,4-triazol-3-yl)-2-(3,4-dimethoxyphenyl)-3-isopropyl-1H-indole]
4.1	70	6.7	Cc1cc(-c2[nH]c3ccc(-c4nnc(C5CCN(C(C)C)CC5)[nH]4)cc3c2C(C)C)ccn1 [Example 187, 3-isopropyl-5-(5-(1-isopropylpiperidin-4-yl)-4H-1,2,4-triazol-3-yl)-2-(2-methylpyridin-4-yl)-1H-indole]
> 50	386	530	COc1ccc(-c2[nH]c3ccc(-c4nnc(CNCCOC(C)C)o4)cc3c2C(C)C)cc1OC [Example 114, N-((5-(2-(3,4-dimethoxyphenyl)-3-isopropyl-1H-indol-5-yl)-1,3,4-oxadiazol-2-yl)methyl)-2-isopropoxyethan-1-amine]
8.43	604	96	COc1ccc(-c2[nH]c3ccc(-c4cccc(N5CCNCC5)c4)cc3c2C(C)C)cc1OC [Example 411, 2-(3,4-dimethoxyphenyl)-3-isopropyl-5-(3-(piperazin-1-yl)phenyl)-1H-indole]

Structure (SMILES)	IC50 (human TLR9) [µM]	IC50 (human TLR7) [nM]	IC50 (human TLR8) [nM]
Cc1cc(-c2[nH]c3ccc(-c4nnc(C5CN6CCC5CC6)o4)cc3c2C(C)C)cc(C)n1 (stereo not drawn) [Example 296, 2-(2-(2,6-dimethylpyridin-4-yl)-3-isopropyl-1H-indol-5-yl)-5-(quinuclidin-3-yl)-1,3,4-oxadiazole]	0.31	4.8	1.7

Reference: US11420958B2, “Aryl and heteroaryl substituted indole compounds” (BRISTOL-MYERS SQUIBB COMPANY, priority 2017, dated 2022)
